What all share (type): protein assay
Experiment [1] has as its target T1, Trypsin (Homo sapiens, UniProt P07477+P07478+P35030). In words: Inhibition of trypsin (unknown origin) using BApNA as substrate incubated for 15 min prior to substrate addition measured after 30 min by UV/VIS spectrophotometric analysis.
For experiment [2], the target named is T1, Trypsin. In words: Inhibition of trypsin (unknown origin) using BApNA as substrate at 2 mg/ml incubated for 15 min prior to substrate addition measured after 30 min by UV/VIS spectrophotometric analysis.
The target in experiment [3] is T1, Trypsin. In words: Non-competitive inhibition of trypsin (unknown origin) using BApNA as substrate by Lineweaver-Burk/Dixon plot analysis.

Here are results for three molecules from ChEMBL document CHEMBL3045620, “Trypsin inhibitory potential and microbial transformation of rutin isolated from Citrus sinensis” (Med Chem Res, 2013).

In turn, `O=S(=O)(F)Cc1ccccc1` [PHENYLMETHYLSULFONYLFLUORIDE] had an IC50 against Trypsin [1] of 110 µM. Moreover, the inhibition against Trypsin [2] was found to be 87.4%.

Consider `O=c1c(O)c(-c2ccc(O)c(O)c2)oc2cc(O)cc(O)c12` [QUERCETIN], for which, on Trypsin [1], the IC50 came to 19 µM. On Trypsin [2], this molecule came in with an inhibition of 84.1%. At Trypsin [3], the Ki is 13.1 µM.

For the molecule `C[C@@H]1O[C@@H](OC[C@H]2O[C@@H](Oc3c(-c4ccc(O)c(O)c4)oc4cc(O)cc(O)c4c3=O)[C@H](O)[C@@H](O)[C@@H]2O)[C@H](O)[C@H](O)[C@H]1O` [RUTIN], at Trypsin [1], the IC50 came out at 16 µM. Also, on Trypsin [2], the inhibition was determined as 75.2%. At Trypsin [3], this molecule displayed a Ki of 17.5 µM.

Broadly, the IC50 is the point on the concentration scale where inhibition reaches its midpoint. A lower IC50 goes with greater potency in that assay. In general, inhibition refers to the share of the control response that was lost under treatment. A low value points to a response near the control. Broadly, the Ki is a measure of affinity in units of concentration, obtained from inhibition or displacement. A low value points to a stronger hold on the target.
